Holding throughout (format): cell-based
The subject of assay [1] is HCT116 parental colon cancer cells. As to the kind of experiment: Western blot of survivin and PDEF expression in HCT116 parental colon cancer cells. The conditions noted are these: treated for 3 days. As for the experimental part: (§1) FIG. 7 provides a photographic representation of results obtained from differential modulation of survivin and PDEF expression in an HCT116 parental colon cancer cell line, versus in an HCT116 cell line in which both the DNMT1 and DNMT3b DNA methyltransferases have been knocked out. Both HCT116 parental and double knockout (DNMT1^−/−/DNMT3B^−/−) colon cancer cell lines were treated with and without the methylation inhibitor 5-Aza-dC for 3 days as shown. Cells were lysed and analyzed for the expression of survivin and PDEF by western blots. Actin is the internal control of protein loading.
(§2) Since it is know that the survivin gene is not methylated, despite our identification of a CpG island in the survivin gene, this Example further supports that demethylation of PDEF via a DNA methylation inhibitor can facilitate downregulation of survivin expression.

The subject of assay [2] is PDEF-negative ovarian cancer cell lines. The assay is described as follows: Western blot of PDEF and survivin expression in PDEF-negative ovarian cancer cell lines treated with methylation inhibitor. As for the experimental part:
FIGS. 6A and 6B provide photographic representations of results obtained from Western blotting analysis of PDEF expression in PDEF-negative ovarian cancer cell lines treated with and without 5-aza-2-deoxycytidine (5-Aza-dC) for 5 days at 1 μM (FIG. 6A) or different concentrations of 5-Aza-dC (FIG. 6B).
We analyzed whether the loss of PDEF expression in cancer tissues during cancer progression is the result of epigenetic methylation of the PDEF gene. Four PDEF-negative ovarian cancer cell lines were treated with and without the methylation inhibitor 5-aza-2-deoxycytidine (5-Aza-dC) for 5 days at 1 μM (FIG. 6A) or different concentration of 5-Aza-dC (FIG. 6B). Cells were then lysed and analyzed for PDEF expression by Western blots.

Assay [3] has as its system HCT116 colon cancer cells with double knockout (DKO) of DNMT1 and DNMT3b. The assay is described as follows: Western blot of survivin and PDEF expression in HCT116 DNMT1/DNMT3b double knockout cells. The following applies: treated for 3 days. As to the method:
as §1, §2
On the technique in general: In western blotting, separated proteins are transferred to a membrane and probed.

Assay [4] has as its system MDA-MB-231 breast cancer cells. As to the kind of experiment: Cell growth and cell death of MDA-MB-231 cells after sequential MSA / Zebularine treatment (digital images). The following applies: images 48 hours after new medium replacement. As to the method:
FIG. 8 provides a photographic representation of results showing a synergistic effect of DNA methylation inhibitors in combination with DNA methylation inducers/promoters on massive cancer cell death. Sequential treatment of MDA-MB-231 breast cancer cells with methylseleninic acid (MSA, a DNA methylation inducer/promoter) for 48 hours and Zebularine (a DNA methylation inhibitor) for 24 hours alone or in combination as shown. Growth medium with drugs was replaced with complete new medium without drugs 24 hour after Zebularine treatment. Images were then taken using a digital camera 48 hours after new medium replacement.
Sequential treatment of MDA-MB-231 breast cancer cells with methylseleninic acid (MSA, a DNA methylation inducer/promoter) for 48 hours and Zebularine (a DNA methylation inhibitor) for 24 hours alone or in combination as shown. Growth medium with drugs was replaced with complete new medium without drugs 24 hour after Zebularine treatment. Images were then taken using a digital camera 48 hours after new medium replacement.

Molecules are shown by their SMILES.

Take `Nc1ncn([C@H]2C[C@H](O)[C@@H](CO)O2)c(=O)n1` [5-Aza-dC, 5-aza-2-deoxycytidine]: the “PDEF expression by western blots” value is listed as “induces PDEF expression” in assay [1]; “two of the four ovarian cancer cell lines showed restored expression of PDEF” in assay [2] (four PDEF-negative ovarian cancer cell lines, 5 days at 1 μM or different concentration); “no effect” in assay [3]. The “survivin expression by western blots” value in assay [1] is “decreases survivin expression”; in assay [3], “no effect”. The “expression of survivin by Western blots” value in assay [2] (ovarian cancer cell lines with restored PDEF expression, different concentrations of 5-Aza-dC, 5 days (FIG. 6B)) is “reduces or eliminates the expression of survivin”.
As for `C[Se](=O)O` [MSA, methylseleninic acid], in assay [4] (MSA 48 hours, Zebularine 24 hours, alone), the cell growth inhibition entry is listed as “only moderately inhibit cell growth”. Further, in assay [4] (alone or sequential combination (MSA then Zebularine)), the “induction of cell death” value is reported as “without induction of cell death”.

For the origin of these results see patent publication US8043815B2, “Methods for analysis of PDEF and survivin as interconnected cancer biomarkers and targets for personalized medicine” (Health Research, Inc., priority 2007, dated 2011).
